Source: patent US12011447B2, “Pharmaceutical composition for treating thyroid cancer comprising tyrosine kinase activity inhibitor as active ingredient” (Kyungpook National University Industry-Academic Cooperation …, priority 2017, dated 2024)
Entries after “also recorded” stand apart in the source; their conditions may differ.

What was measured:
cleaved caspase-3 = assay: Immunohistochemistry of cleaved caspase-3 in tumor tissue; assay type: in vivo, Balb/c nude mice; conditions: co-administered with 131I and TKI-0266
Source text: At the end of the experiment, the mice were sacrificed, and the tumors were isolated from the mouse's right flank and fixed overnight with 4% formalin. The isolated tumors were embedded in paraffin, sectioned to a 4-μm thickness, and mounted on slides. The tumor sections on the slides were de-paraffinized and stained with hematoxylin & eosin. For immunohistochemistry, NIS (Thermo Fisher Scientific; diluted at 1:200) and cleaved caspase-3 (Cell signaling; diluted at 1:200) antibodies were used.

8505C cells = assay: In vitro 125I uptake assay; assay type: cell-based, human; conditions: anaplastic thyroid cancer cells, 24 hours treatment
Description: 8505C cells (1.25×10^5) were seeded and incubated in a 24-well plate for 24 hours, and then treated with TKI-0266 and further incubated for 24 hours. Thereafter, the medium was removed, and the cells were washed with bHBSS (Hank's balanced salt solution containing 0.5% BSA). The cells were incubated with 500 μl of bHBSS, 3.7 kBq carrier-free ^125I (Perkin-Elmer), and 10 μmol/L sodium iodide (specific activity of 740 MBq/mmol) at 37° C. for 30 minutes. Thereafter, the cells were washed twice with cold bHBSS and lysed by adding 500 μL of 2% SDS solution thereto. Radioactivity was measured using a Cobra II gamma-counter (Canberra Packard, Canada). The ^125I uptake values were normalized by comparing the amount of total protein determined by BCA protein assay kit.

p-ERK = assay: Western blot of phosphorylated ERK; assay type: cell-based, human; conditions: 8505C-PNIS-PCMV cells
Description: (§1) 8505C-PNIS-PCMV cells were treated with TKI-0266 and incubated for 24 hours, and then the cell pellet was washed twice with cold phosphate-buffered saline (hereinafter referred to as PBS). An RIPA buffer (Thermo Fisher Scientific, USA) containing a protease/phosphatase cocktail inhibitor kit (Thermo Fisher Scientific) was added to the cell pellet to lyse the cells. The lysed cells were gently vortexed three times at a time interval, and centrifuged at 13000xg at 4° C. to isolate a soluble protein. The isolated protein was quantified using a BCA protein assay kit (Thermo Fisher Scientific).
(§2) Equal amounts of proteins were separated by 10% SDS-PAGE (sodium dodecyl sulfate-polyacrylamide gel electrophoresis), and then the proteins were transferred to PVDF membranes (Millipore, USA). The PVDF membrane was blocked with 3% BSA (bovine serum albumin) in TBS containing Tween-20 (TBS-T) for 1 hour, and incubated with primary antibodies in 0.5% BSA overnight at 4° C. The next day, the PVDF membrane was incubated with HRP-conjugated secondary antibodies at room temperature for 1 hour, and washed three times with TBS-T. The protein bands were visualized using ECL detection reagent (GE Healthcare Life Sciences, Italy) and the Fusion FX chemiluminescence analyzer system (Vilber lourmat, France). […]

[1] = tested on: TPO, TSHR, Tg, TTF-1 and Pax-8; assay: Western blot of thyroid-specific proteins; assay type: cell-based, human; conditions: 8505C-PNIS-PCMV cells
Description: as §1, §2

[2] = tested on: anaplastic thyroid cancer xenograft (8505C-PNIS-PCMV); assay: In vivo 99mTc-pertechnetate gamma camera imaging; design: species or system Balb/c nude mice; conditions: for 99mTc-pertechnetate uptake (tumor ROI normalized to background), FIG. 16B: 50 mg/kg
Description: Female Balb/c nude mice, 5.5-week old with an average weight of 18.9±0.37 g (mean±standard deviation [SD]), were purchased (Hamamatsu, Shizuoka, Japan). The mice were acclimated under specific pathogen-free conditions for one week before starting the experiment, and were maintained at a temperature of 20 to 25° C. and a relative humidity of 40 to 70%. To establish anaplastic thyroid cancer xenograft mouse models, 8505C-PNIS-PCMV s (5×10^6) were mixed with Matrigel (Corning) at a ratio of 1:1 and injected subcutaneously into the right flank region of each mouse.
When the injected 8505C-PNIS-PCMV cells grew to a size of about 50 mm^3, the mice were divided into two groups (n=5): a vehicle group; and a TKI-0266-administered group (50 mg/kg) injected with TKI-0266 by intraperitoneal injection every day for 5 days. To acquire gamma-camera images, 18.5 to 22.2 MBq ^99mTc-pertechnetate was administered to all the mice by intravenous injection. Whole body pinhole gamma camera imaging using a 2-mm pinhole collimator was acquired by infinia II gamma camera (GE Healthcare, USA). During the experiment, the mice were maintained under anesthesia with isoflurane (Forane, ChoongWae Co., Ltd., Korea). In order to estimate the count value, quantitative analysis was performed by quantifying the regions of interest (hereinafter referred to as ROI) in the mouse tumor region. Finally, in order to confirm the pertechnetate absorbed into the tumor, normalization was performed with a background activity ROI of the same size in the mouse head region.

## Cc1cc2c(N(C)C3CCCCC3)ncnc2s1 [TKI-0266]
Cleaved caspase-3
  expression of cleaved caspase-3 indicating cell death (immunohistochemistry): the highest
8505C cells
  iodine uptake compared to vehicle group: significantly increased
p-ERK
  level of phosphorylated ERK (p-ERK) protein: significantly decreased
[1]
  expression of TPO, TSHR, Tg, TTF-1 and Pax8 proteins: increased
[1]; FIG. 12
  expression of Tg, TPO, Pax8, TSHR, NIS and TTF-1 as treatment concentration increased: increased
[2]; 50 mg/kg every day for 5 days
  99mTc-pertechnetate accumulation in the cancer cells (radioisotope uptake): significantly increased; also recorded: the best
[2]; day 0
  99mTc-pertechnetate uptake (tumor ROI normalized to background), FIG. 16B: 0.852±0.210
[2]; day 6
  99mTc-pertechnetate uptake (tumor ROI normalized to background), FIG. 16B: 1.21±0.24
